The record followed here is patent US9045461B2, “Phenyl-heteroaryl derivatives and methods of use thereof” (TransTech Pharma, LLC, priority 2010, dated 2015).

SMILES strings stand for the structures. Structures can show the parent of a compound that is named as a salt.

Test [1] concerns the target T1, sRAGE binding to β-amyloid (Homo sapiens, UniProt Q15109).
T1 construct: extracellular domain can be isolated by proteolysis of RAGE to generate soluble RAGE (sRAGE) comprised of the V and C domains
The experiment in a line: RAGE binding assay (ELISA), β-amyloid as the RAGE ligand. As to conditions: compounds tested in hydrochloride salt form, concentration at which 50% signal has been inhibited. In short, it runs like this: (§1)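 Ligand (500 ng/well) coated in carbonate buffer pH 9.8 overnight at 4° C and blocked with 1% BSA; test compound (10-100 μM in water, 4% DMSO co-solvent) incubated with sRAGE (6 nM FAC) 1 h at 37° C. Bound sRAGE detected by anti-sRAGE/biotin-anti-mouse/AP-streptavidin with pNPP, A405. IC50 = 50% signal inhibition.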
Background: In an ELISA, binding on a coated surface is turned into a signal by an enzyme label.

In a further test the target is T2, sRAGE binding to S100b (Homo sapiens, UniProt Q15109).
T2 construct: extracellular domain can be isolated by proteolysis of RAGE to generate soluble RAGE (sRAGE) comprised of the V and C domains
The experiment in a line: RAGE binding assay (ELISA), S100b as the RAGE ligand. As to conditions: compounds tested in hydrochloride salt form, concentration at which 50% signal has been inhibited. The procedure, abridged: as §1

Test [2] relates to RAGE signaling in THP-1 cells. The experiment in a line: Functional assay: TNF-alpha secretion by S100b-stimulated THP-1 cells. The class given is cell-based. The settings on record: Homo sapiens; THP-1 cells stimulated with bovine S100b 100 μg/mL; TNF-alpha measured by ELISA 24 hours after stimulation; read-out: EC50 for TNF expression. From the text: Previously the literature has cited that THP-1 cells in response to RAGE ligands secrete TNF alpha (Yeh C-H, et al. Diabetes. Vol. 50, June 2001, pp. 1495-1504). The following assay method may be used to identify compounds of Formula (I) or pharmaceutically acceptable salts thereof which are useful as antagonists of RAGE signaling.
The myeloid cell line, THP-1 (ATTC # TIB-202), may be cultured in RPMI-1640 media (ATCC, Cat #30-2001) supplemented with fetal bovine serum to a final concentration of 10% by volume and Penicillin-Streptomycin (Gibco, Cat #0.15140-122). Alternatively, media may be formulated using RPMI 1640 (Bio-Whitaker #12-702F) supplemented with 2 mM L-glutamine (Gibco #12381-018) adjusted to contain 1.5 g/L sodium bicarbonate (Gibco #25080-094), 4.5 g/L glucose, 10 mM HEPES (Cellgro #25-060-L1) and 1.0 mM sodium pyruvate (Gibco #11360-070) and supplemented with 0.05 mM 2-mercaptoethanol, […] fetal bovine serum, 10% per ATCC instructions. During culture, the culture cells are maintained at a density between 5×10^4 and 1×10^6 viable cells/mL. […]
The amount of TNF-alpha secreted by the THP-1 cells was measured 24 hours after the addition of the stimulant proteins to the cell culture using a commercially available ELISA kit (R&D Systems, Minneapolis, Minn. # DY210). […] The plate is read at 450 nm within 30 minutes. […]

T1 sequence (Q15109 23-342 limits assumed): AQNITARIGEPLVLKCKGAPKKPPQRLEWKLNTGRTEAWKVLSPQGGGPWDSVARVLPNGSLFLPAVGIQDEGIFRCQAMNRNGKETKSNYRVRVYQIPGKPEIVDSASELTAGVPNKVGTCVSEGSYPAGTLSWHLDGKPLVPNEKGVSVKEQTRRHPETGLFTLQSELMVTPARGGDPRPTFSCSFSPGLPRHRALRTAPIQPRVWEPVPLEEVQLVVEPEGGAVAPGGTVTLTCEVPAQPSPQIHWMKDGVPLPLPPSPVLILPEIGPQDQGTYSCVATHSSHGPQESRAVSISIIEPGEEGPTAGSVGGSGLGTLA
T2 sequence (Q15109 23-342 limits assumed): as above

For the compound `CCCCc1nnc(OC2CCN(C)CC2)cc1-c1ccc(OC2CCCCC2)cc1` [Example 14, 3-Butyl-4-(4-cyclohexyloxy-phenyl)-6-(1-methyl-piperidin-4-yloxy)-pyridazine dihydrochloride], the half-maximal inhibitory concentration (IC50) (as a rule, the concentration needed to halve the response being measured) in test [1] came to 0.82 µM; at sRAGE binding to S100b it was 0.81 µM. The EC50 (usually the concentration giving half of the maximal effect) in test [2] is 1.26 µM.

Take `CCCCc1nnc(OC2CCN(CC(C)(C)O)CC2)cc1-c1ccc(OC2CCCCC2)cc1` [Example 22, 1-{4-[6-Butyl-5-(4-cyclohexyloxy-phenyl)-pyridazin-3-yloxy]-piperidin-1-yl}-2-methyl-propan-2-ol dihydrochloride]: the results for the IC50 (in test [1]; on sRAGE binding to S100b) were 1.12 µM and 1.38 µM, respectively.

With `CCCCc1nnc(C(=O)NCC2CCN(C)CC2)cc1-c1ccc(OC2CCCCC2)cc1` [Example 103, 6-Butyl-5-(4-cyclohexyloxy-phenyl)-pyridazine-3-carboxylic acid (1-methyl-piperidin-4-ylmethyl)-amide dihydrochloride], the concentration for half-maximal inhibition (IC50) in test [1] is 1.11 µM; at sRAGE binding to S100b, 1.77 µM.

Take `CCCCc1nnc(C(=O)NC[C@@H]2CCCN2CC)cc1-c1ccc(OC2CCCCC2)cc1` [Example 92, 6-Butyl-5-(4-cyclohexyloxy-phenyl)-pyridazine-3-carboxylic acid ((S)-1-ethyl-pyrrolidin-2-ylmethyl)-amide dihydrochloride]: the IC50 in test [1] was 1.02 µM; at sRAGE binding to S100b, 1.75 µM.

In the case of `CCCCc1nnc(OC2CCN(C)CC2)cc1-c1ccc(OC(C)C)cc1` [Example 49, 3-Butyl-4-(4-isopropoxy-phenyl)-6-(1-methyl-piperidin-4-yloxy)-pyridazine dihydrochloride], the values for the IC50 (in test [1]; on sRAGE binding to S100b) were 6.26 µM and 3.94 µM, respectively.

In the case of `CCCCc1nnc(OC2CCN(C)CC2)cc1-c1ccc(OC2CCCCC2)c(C2=NC(C)(C)CO2)c1` [Example 76, 3-Butyl-4-[4-cyclohexyloxy-3-(4,4-dimethyl-4,5-dihydro-oxazol-2-yl)-phenyl]-6-(1-methyl-piperidin-4-yloxy)-pyridazine], the values for the IC50 (in test [1]; at sRAGE binding to S100b) were 6.78 µM and 2.07 µM, respectively.

Consider `CCCCc1nnc(OC2CCN(CCOC)CC2)cc1-c1ccc(OC2CCCCC2)cc1` [Example 23, 3-Butyl-4-(4-cyclohexyloxy-phenyl)-6-[1-(2-methoxy-ethyl)-piperidin-4-yloxy]-pyridazine dihydrochloride], for which the concentration for half-maximal inhibition (IC50) in test [1] was 1.11 µM; at sRAGE binding to S100b, 0.78 µM.

As for `CCCCc1nnc(OC2CCN(C)CC2)cc1-c1ccc(OCC2CCN(C(C)=O)CC2)cc1` [Example 55, 1-(4-{4-[3-butyl-6-(1-methyl-piperidin-4-yloxy)-pyridazin-4-yl]-phenoxymethyl}-piperidin-1-yl)-ethanone dihydrochloride], the IC50 stood at 9.18 µM in test [1] and 3.68 µM at sRAGE binding to S100b.
